# pEC50, pIC50, pKi: −log10 of the molar value. Read-outs that look alike come from different tables or passages of the source.
# Assays:
# MOR = MOR (Homo sapiens, UniProt P35372); assay: Opioid receptor selectivity, radioligand competition binding (3H-DAMGO) on cell membranes
# Protocol: (§1) The selectivity of the compounds of the invention for κ opioid receptors was determined by measuring the inhibitory effect of the compounds of Examples on the […] of KOR, MOR, and DOR.
# (§2) The compounds of Examples at different concentrations were incubated with the cell membrane with high expression of KOR, MOR, DOR and the corresponding radioligand (KOR: 3H-diprenophrine; MOR: 3H-DAMGO; DOR: 3H-DADLE) for 1 h, the compounds of Examples competed with the radioligands for binding to KOR, MOR, DOR. After the incubation, Cell harvest was used to collect cell membranes onto a Unifilter-96 GF/C filter plate, and the unbound radioligands were washed away. The plate was placed in a 50-degree oven for 1 h, and finally the scintillation solution Microscint 20 cocktail was added and the isotope signal was detected by MicroBeta2 Reader.
# (§3) According to the intensity of the isotope signal at different concentrations, the IC50 was calculated by means of fitting with a four-parameter equation, and the Ki value was calculated.
# (§4) The Ki value was calculated according to the formula Ki=IC50/(1+[radioligand]/Kd), and Kd was the equilibrium dissociation constant of radioligand.
# [1] = target: T1, human κ-opioid receptor (KOR) (Homo sapiens, UniProt P41145); assay: κ-opioid receptor agonistic effect (inhibition of adenylate cyclase, cAMP assay); assay type: cell-based; conditions: CHO cells stably expressing human KOR; NKH477-stimulated cAMP; four-parameter fit; read-out: ED50 (the source's name)
# T1 construct: expressed in transfected cells
# Protocol: The efficacy of the compounds of the invention as κ-opioid receptor agonists was determined by measuring the ability of the compounds of Examples to inhibit adenylate cyclase activity.
# Cell culture: hamster ovary cells CHO stably expressing human κ-opioid receptor (KOR) gene were cultured in MEMα plus nucleosides medium (Invitrogen) containing 5% FBS.
# Stimulation: the test compound was 4-fold diluted in a gradient manner to obtain 11 concentrations, and 100 nl of each was transferred to a 384-well plate, and then a stimulating solution (5 uL) containing NKH477 (Tocris) was added; the cells were digested, re-suspended, and counted; and then the cells (5 uL) were added to wells, mixed gently, and incubated at 37° C. for 30 min.
# Detection: cAMP Assay Kit (Cisbio) was used, cAMP-D2 and Anti-cAMP-Cryptate were added separately, and the resultant mixture was incubated for 1 h at room temperature. The plate was read using envision (Perkin Elmer) and EC50 was obtained by means of fitting with a four-parameter equation.
# KOR = KOR (Homo sapiens, UniProt P41145); assay: Opioid receptor selectivity, radioligand competition binding (3H-diprenophrine) on cell membranes
# Protocol: as §1, §2, §3, §4
# [2] = Ability of compounds to pass through the blood-brain barrier (plasma and brain tissue concentration); assay type: in vivo; conditions: rat, male rats, iv 1 mg/kg; for concentration at 5 min: 5 min after administration; for concentration at 15 min: 15 min after administration; for concentration at 30 min: 30 min after administration; for concentration at 60 min: 60 min after administration
# Protocol: After peripheral intravenous administration of the compound of each Example to the animal, samples of peripheral plasma and brain tissue were taken to determine the concentration of the compound in the peripheral plasma and brain tissue.
# After intravenously injected with the compound of Example 5 at 1 mg/kg to male rats, samples of plasma and brain tissues were taken at various time points, and the contents of the test compound in the peripheral plasma and brain tissue were determined.
# [3] = Pharmacokinetic (PK) study in rats; assay type: in vivo; conditions: male SD rats, intravenous, 1 mg/kg
# Protocol: The pharmacokinetic profile of the compounds of Examples was studied by intravenous administration of the compounds of Examples to male SD rats. The dose for IV administration was 1 mg/kg, and the solvent was 5% DMSO: 5% solutol: 90% physiological saline. After IV administration, blood samples were collected at different time points for PK study. Plasma were treated by protein precipitation and then analyzed by LC-MS/MS.
# In LC-MS/MS, mass spectrum was API 5500, and liquid chromatography was Shimadzu LC-30AD system. The column used for the test groups of Compound 3 and Compound 4 was Thermo C18 column (4.6 mm×100 mm, 3 μm); for mobile phases, phase A was water+0.1% formic acid, and phase B was methanol; the flow rate was 0.8 mL/min, and the column temperature was 40° C. The column used for the test group of Compound 5 was Agela AQ C18 column (2.1 mm×50 mm, 1.9 μm); for mobile phases, phase A was water+0.05% formic acid+5 mM acetic acid ammonium, and phase B was methanol+0.05% formic acid; the flow rate was 0.6 mL/min, and the column temperature was 40° C. The ion source used was the ESI source in positive ion mode, and the scanning mode was Multiple Reaction Monitoring (MRM).
# DOR = DOR (Homo sapiens, UniProt P41143); assay: Opioid receptor selectivity, radioligand competition binding (3H-DADLE) on cell membranes
# Protocol: as §1, §2, §3, §4
# male ICR mice = assay: Acetic acid-induced writhing test in mice; assay type: in vivo; parameters: ED50: unit not given here
# Protocol: The analgesic effect of the compound of the invention was evaluated by measuring the ED50 of the compounds of Examples in the acetic acid-induced writhing test in mice.
# The commercial glacial acetic acid solution was diluted with physiological saline to 0.6% glacial acetic acid solution. The male ICR mice were randomly separated into the drug group and the model group (to which physiological saline was administration). 15 minutes after iv administration, 0.6% acetic acid solution was intraperitoneally injected at 10 ml/kg, and the mice was immediately recorded with DV camera for 15 min. After the recording, the number of writhes of the mice within 15 min was counted from the video by blind method, the inhibition rate for the writhes was calculated according to Formula (I), and the ED50 of the compound was calculated according to Formula (II).
# (I) The inhibition rate for the writhes was calculated by the formula: Inhibition rate (%)=(the number of writhes in a model group−the number of writhes in a drug group)/the number of writhes in a model group*100.
# (II) The ED50 was calculated by the formula:
# [formula] wherein Xm was the logarithm of the highest dose, d was the difference in the logarithm of two adjacent doses, p was the inhibition rate for each dose group, pm was the highest-dose inhibition rate, and pn was the lowest-dose inhibition rate.
# [4] = brain, read-out: Concentration in brain tissue
# [5] = plasma, read-out: Concentration in peripheral plasma
smiles,measurement,setting,value
"COCCOCCNCCCC[C@@H](NC(=O)[C@@H](CC(C)C)NC(=O)[C@@H](Cc1ccccc1)NC(=O)[C@H](N)Cc1ccccc1)C(=O)N1CCC(N)(C(=O)O)CC1 [Example 5, 4-amino-1-((R)-2-((R)-2-((R)-2-((R)-2-amino-3-phenylpropanamido)-3-phenylpropanamido)-4-methylpentanamido)-6-((2-(2-methoxyethoxy)ethyl)amino)hexanoyl)piperidin-4-carboxylic acid]",pKi,"MOR; Ki=IC50/(1+[radioligand]/Kd), read-out: MOR Ki",< 5.14
same,pIC50,"MOR; radioligand 3H-DAMGO, 1 h incubation, read-out: MOR IC50",< 4.70
same,pEC50,[1],10.30
same,KOR selectivity (in words),KOR; KOR versus MOR and DOR binding,excellent KOR selectivity
same,pKi,"KOR; Ki=IC50/(1+[radioligand]/Kd), read-out: KOR Ki",10.70
same,pIC50,"KOR; radioligand 3H-diprenophrine, 1 h incubation, read-out: KOR IC50",10.30
same,concentration at 5 min,[2]; [4],0 ng/mL
same,concentration at 15 min,[2]; [4],0 ng/mL
same,concentration at 30 min,[2]; [4],0.2 ng/mL
same,concentration at 60 min,[2]; [4],0 ng/mL
same,concentration at 5 min,[2]; [5],1310 ng/mL
same,concentration at 15 min,[2]; [5],716 ng/mL
same,concentration at 30 min,[2]; [5],386 ng/mL
same,concentration at 60 min,[2]; [5],136 ng/mL
same,pharmacokinetic profile (in words),[3],good exposure amount and Cmax
same,AUC(0-t),"[3]; rat, plasma",783 ng·h/mL
same,Cmax,"[3]; rat, plasma",1690 ng/mL
same,Vd,"[3]; rat, plasma",0.53 L/kg
same,half-life,"[3]; rat, plasma",16.8 min
same,pKi,"DOR; Ki=IC50/(1+[radioligand]/Kd), read-out: DOR Ki",< 4.92
same,pIC50,"DOR; radioligand 3H-DADLE, 1 h incubation, read-out: DOR IC50",< 4.70
same,analgesic effect (in words),"male ICR mice; acetic acid-induced writhing, mice, iv",significant analgesic effect
same,ED50,"male ICR mice; iv administration 15 min before 0.6% acetic acid ip, writhes counted within 15 min",0.017
